According to publication PMC6379498, “Radiosynthesis and in vivo evaluation of ^11C-labeled BMS-193885 and its desmethyl analog as PET tracers for neuropeptide Y1 receptors” (EJNMMI Radiopharmacy and Chemistry, 2019):

Legend:
[1] = Biodistribution of radioactivity in mice after tracer injection; format: in vivo; conditions: for Radioactivity level, blood / Radioactivity level, brain / Radioactivity level, heart / Radioactivity level, kidney / Radioactivity level, liver / Radioactivity level, lung / Radioactivity level, muscle / Radioactivity level, pancreas / Radioactivity level, small intestine / Radioactivity level, spleen: mean±S.D. n=4
Protocol: [^11C]1 (13 MBq/0.12 nmol) or [^11C]2 (15 MBq/0.36 nmol) was intravenously injected into mice (aged 7–8 weeks, weighing 33–38 g, n = 4). Mice were euthanized by cervical dislocation at 5, 15, 30, or 60 min post-injection.
(§1) Blood samples were collected by heart puncture. Tissues were dissected and weighed. The radioactivity in samples was measured with an automatic gamma counter (Wizard 3′′ 1480, PerkinElmer, Waltham, MA, USA). The tissue uptake of radioactivity was expressed as the percentage of injected dose detected per gram of sample (%ID/g, tissue radioactivity/g tissue/injected radioactivity × 100).

NPY Y1-Rs = biological target: T1, NPY Y1-Rs (Mus musculus, UniProt Q04573); assay: Effect of pretreatment with 1 (BMS-193885) on tissue distribution of radioactivity; format: in vivo, mice; conditions: 30 min post-injection, 1 10 mg/kg 20-30 min before tracer, vs control
T1 construct: in the lung, spleen, and kidney, which are rich in NPY Y1-Rs; from tissue; host or cells: organs of living mice (blood, heart, lung, spleen, kidney, liver, pancreas, muscle, brain etc.)
T1 sequence (Q04573 1-382): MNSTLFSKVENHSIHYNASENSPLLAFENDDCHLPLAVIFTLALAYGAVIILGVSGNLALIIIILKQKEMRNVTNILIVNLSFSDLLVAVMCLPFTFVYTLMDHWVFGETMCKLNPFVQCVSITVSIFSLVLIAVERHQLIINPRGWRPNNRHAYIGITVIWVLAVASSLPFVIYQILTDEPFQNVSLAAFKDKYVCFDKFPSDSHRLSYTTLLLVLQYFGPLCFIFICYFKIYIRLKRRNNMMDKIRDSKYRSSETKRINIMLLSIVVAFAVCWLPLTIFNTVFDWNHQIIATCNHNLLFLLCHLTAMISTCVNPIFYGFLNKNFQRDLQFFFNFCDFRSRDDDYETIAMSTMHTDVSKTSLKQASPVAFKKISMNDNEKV
Protocol: (§2) [^11C]1 (7.1–14 MBq/0.079–0.23 nmol) or [^11C]2 (6.0 MBq/0.16 nmol) was intravenously injected into mice (aged 7–8 weeks, weighing 32–36 g, n = 4–8) 20–30 min after the administration of the solution of 1 (10 mg/kg body weight [b.w.]/0.1 mL water containing 20% Tween 80), elacridar (5 mg/kg b.w./0.1 mL water), or a control fluid (0.1 mL water). Mice were euthanized by cervical dislocation at 30 min post-injection.
Blood samples were collected by heart puncture. Tissues were dissected and weighed. […] The tissue uptake of radioactivity was expressed as the percentage of injected dose detected per gram of sample (%ID/g, tissue radioactivity/g tissue/injected radioactivity × 100).

P-gp and BCRP = assay: Effect of pretreatment with elacridar on tissue distribution of radioactivity; format: in vivo, mice; conditions: 30 min post-injection, elacridar 5 mg/kg 20-30 min before tracer, vs control
Protocol: as §2, with “The effects of pretreatment with 1 (BMS-193885) or the ABC transporter-inhibitor elacridar (inhibiting drug efflux transporters, mainly P-gp and BCRP) on tissue distributions of radioactivity were investigated. [^11C]1” for “[^11C]1”
as §1

Radioactivity level, blood ([1]; 5 min after i.v. injection): 0.65±0.05 %ID/g | Radioactivity level, blood ([1]; 15 min after i.v. injection): 0.21±0.01 %ID/g | Radioactivity level, blood ([1]; 30 min after i.v. injection): 0.17±0.02 %ID/g | Radioactivity level, blood ([1]; 60 min after i.v. injection): 0.19±0.20 %ID/g | Radioactivity level, brain ([1]; 5 min after i.v. injection): 0.05±0.02 %ID/g | Radioactivity level, brain ([1]; 15 min after i.v. injection): 0.04±0.04 %ID/g | Radioactivity level, brain ([1]; 30 min after i.v. injection): 0.01±0.00 %ID/g | Radioactivity level, brain ([1]; 60 min after i.v. injection): 0.03±0.01 %ID/g | Radioactivity level, heart ([1]; 5 min after i.v. injection): 0.69±0.09 %ID/g | Radioactivity level, heart ([1]; 15 min after i.v. injection): 0.42±0.02 %ID/g | Radioactivity level, heart ([1]; 30 min after i.v. injection): 0.28±0.04 %ID/g | Radioactivity level, heart ([1]; 60 min after i.v. injection): 0.14±0.04 %ID/g | Brain penetration ([1]; judged from brain radioactivity at 30 min): penetrated the brain poorly | Radioactivity level, kidney ([1]; 5 min after i.v. injection): 13.25±1.18 %ID/g | Radioactivity level, kidney ([1]; 15 min after i.v. injection): 10.96±0.51 %ID/g | Radioactivity level, kidney ([1]; 30 min after i.v. injection): 9.89±0.52 %ID/g | Radioactivity level, kidney ([1]; 60 min after i.v. injection): 9.23±1.61 %ID/g | Radioactivity level, liver ([1]; 5 min after i.v. injection): 29.54±1.57 %ID/g | Radioactivity level, liver ([1]; 15 min after i.v. injection): 24.28±3.04 %ID/g | Radioactivity level, liver ([1]; 30 min after i.v. injection): 15.54±4.41 %ID/g | Radioactivity level, liver ([1]; 60 min after i.v. injection): 8.43±2.71 %ID/g | Radioactivity level, lung ([1]; 5 min after i.v. injection): 1.00±0.08 %ID/g | Radioactivity level, lung ([1]; 15 min after i.v. injection): 0.79±0.11 %ID/g | Radioactivity level, lung ([1]; 30 min after i.v. injection): 0.82±0.13 %ID/g | Radioactivity level, lung ([1]; 60 min after i.v. injection): 0.65±0.08 %ID/g | Radioactivity level, muscle ([1]; 5 min after i.v. injection): 0.44±0.21 %ID/g | Radioactivity level, muscle ([1]; 15 min after i.v. injection): 0.30±0.02 %ID/g | Radioactivity level, muscle ([1]; 30 min after i.v. injection): 0.38±0.17 %ID/g | Radioactivity level, muscle ([1]; 60 min after i.v. injection): 0.33±0.19 %ID/g | Radioactivity level, pancreas ([1]; 5 min after i.v. injection): 1.20±0.18 %ID/g | Radioactivity level, pancreas ([1]; 15 min after i.v. injection): 1.27±0.11 %ID/g | Radioactivity level, pancreas ([1]; 30 min after i.v. injection): 1.18±0.18 %ID/g | Radioactivity level, pancreas ([1]; 60 min after i.v. injection): 1.15±0.13 %ID/g | Radioactivity level, small intestine ([1]; 5 min after i.v. injection): 15.78±6.51 %ID/g | Radioactivity level, small intestine ([1]; 15 min after i.v. injection): 30.77±8.94 %ID/g | Radioactivity level, small intestine ([1]; 30 min after i.v. injection): 27.23±12.69 %ID/g | Radioactivity level, small intestine ([1]; 60 min after i.v. injection): 13.52±4.25 %ID/g | Radioactivity level, spleen ([1]; 5 min after i.v. injection): 0.79±0.11 %ID/g | Radioactivity level, spleen ([1]; 15 min after i.v. injection): 0.55±0.07 %ID/g | Radioactivity level, spleen ([1]; 30 min after i.v. injection): 0.37±0.07 %ID/g | Radioactivity level, spleen ([1]; 60 min after i.v. injection): 0.23±0.05 %ID/g | Change of radioactivity level in blood by pretreatment with 1 (NPY Y1-Rs; blood): not changed | Change of radioactivity level in brain by pretreatment with 1 (NPY Y1-Rs; brain): not changed | Change of radioactivity level in heart by pretreatment with 1 (NPY Y1-Rs; heart): not changed | Change of radioactivity level in kidney by pretreatment with 1 (NPY Y1-Rs; kidney): significantly decreased | Change of radioactivity level in lung by pretreatment with 1 (NPY Y1-Rs; lung): significantly decreased | Change of radioactivity level in muscle by pretreatment with 1 (NPY Y1-Rs; muscle): not changed | Change of radioactivity level in pancreas by pretreatment with 1 (NPY Y1-Rs; pancreas): not changed | Change of radioactivity level in spleen by pretreatment with 1 (NPY Y1-Rs; spleen): significantly decreased | Change of radioactivity level in brain by pretreatment with elacridar (P-gp and BCRP; brain): not increased | Change of radioactivity level in heart by pretreatment with elacridar (P-gp and BCRP; heart): significantly increased | Change of radioactivity level in kidney by pretreatment with elacridar (P-gp and BCRP; kidney): significantly decreased | Change of radioactivity level in liver by pretreatment with elacridar (P-gp and BCRP; liver): significantly increased
SMILES: COC(=O)C1=C(C)NC(C)=C(C(=O)OC)C1c1cccc(N[11C](=O)NCCCN2CCC(c3cccc(O)c3)CC2)c1 [[^11C]2]
